{
  "source": "patent US8603539B2",
  "about": "“Compositions for drug delivery” (Dr. Reddy's Laboratories Limited, priority 2005, dated 2013)",
  "tested_on": "New Zealand white rabbits",
  "assay": "Comparative dermal irritation study (PDII)",
  "settings": "rabbit skin, patch 24 hours; erythema and edema scores at 25, 48 and 72 hours",
  "procedure": "Six male New Zealand white rabbits of age between 10 to 15 months and weight in the range of 2 to 3 Kg were used in the study. […] The hair on the backs of the rabbits was clipped and approximately 0.5 g of Test or Reference or Control 2 was placed on a gauze patch and was applied to the skin site. Separate gauze patches containing Test, Reference and Control 2 were applied on the back. The patches were moistened with 0.5 ml physiological saline after application. 0.5 ml of Control 1 was injected into a fourth gauze patch after applying the patch on the skin. The patches were removed after 24 hours.\nThe test and control items were categorized based on the Primary Dermal Irritation Index (PDII). The PDII was determined as the ratio of total irritation score (TIS) and total number of observations. The TIS was calculated by adding the subtotal values for erythema and edema. The subtotal values for erythema and edema were separately calculated by adding the irritation scores at 25, 48 and 72 hours post-application. The following scoring criteria were used as described in the literature (S. C. Gad et al., Acute Toxicology Testing: Perspectives and Horizons, The Telford Press, Inc., Caldwell, N.J., 1988):",
  "data": [
    {"compound": "CCCCCCCCCCCCOS(=O)(=O)[O-].[Na+]", "note": "[Control 1, sodium lauryl sulphate]", "values": [
      {"measurement": "PDII (Primary Dermal Irritation Index)", "result": 0.44}
    ]}
  ]
}
